The values below come from patent US20160158200A1, “Combinations of Hepatitis C Virus Inhibitors” (priority 2013, published 2016).

Like-named read-outs stand apart in the source and are kept apart here.

In this experiment the test system is HCV genotype-1a variant with glutamine 30 changed to glutamate in the NS5A protein. In kind it is cell-based. In a few lines: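 Synergy was assessed by combining several fixed amounts of an NS5A-targeting compound with a titration of the second compound of interest.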
The mark [1] stands for this setting: test compound titrated with BMS-790052 fixed at 200 nM, genotype 1a Q30E replicon.

Turning to `CC(C)[C@H](NC(=O)N(C)C)c1nc(-c2ccc(-c3ccc(-c4c[nH]c([C@@H](NC(=O)N(C)C)C(C)C)n4)cc3)cc2)c[nH]1` [Compound S-228], under setting [1], the “Fold-Synergistic 1a (Q30E)” value was over 100 fold.

Regarding `CC(C)(C)[C@H](NC(=O)[C@H]1C[C@@H]2CC(F)(F)C[C@@H]2C1)c1nc(-c2ccc(-c3ccc(-c4c[nH]c([C@@H](NC(=O)[C@H]5C[C@@H]6CC(F)(F)C[C@@H]6C5)C(C)(C)C)n4)cc3)cc2)c[nH]1` [Compound P-42], the “Fold-Synergistic 1a (Q30E)” value under setting [1] is over 100 fold.

Turning to `CC(C)[C@H](NC(=O)C(C)(C)Oc1ccccc1F)c1ncc(-c2ccc(-c3ccc(-c4cnc([C@@H](NC(=O)C(C)(C)Oc5ccccc5F)C(C)C)[nH]4)cc3)cc2)[nH]1` [Compound Y-33], the “Fold-Synergistic 1a (Q30E)” value under setting [1] was over 100 fold.

For the compound `CC(C)CC(=O)NC1(c2ncc(-c3ccc(-c4ccc(-c5cnc(C6(NC(=O)CC(C)C)CCC6)[nH]5)cc4)cc3)[nH]2)CCC1.O=C(O)C(F)(F)F.O=C(O)C(F)(F)F` [Compound N-11], the “Fold-Synergistic 1a (Q30E)” value under setting [1] is on record as under 10 fold.

For `CC(C)[C@H](NC(=O)C1CCC(F)(F)CC1)c1nc2ccc(C#Cc3ccc4nc([C@@H](NC(=O)C5CCC(F)(F)CC5)C(C)C)[nH]c4c3)cc2[nH]1.O=C(O)C(F)(F)F` [Compound B42], the “Fold-Synergistic 1a (Q30E)” value under setting [1] is listed as over 100 fold.

With `Cc1cc(C(=O)N[C@H](c2ncc(-c3ccc(-c4ccc(-c5cnc([C@@H](NC(=O)c6cc(C)oc6C)C(C)C)[nH]5)cc4)cc3)[nH]2)C(C)C)c(C)o1` [Compound S-98], the “Fold-Synergistic 1a (Q30E)” value under setting [1] is recorded as over 100 fold.

For `CC1(C)CCN(C(=O)C(=O)N2C(C)(C)CCCC2(C)C)C1c1nc(-c2ccc(-c3ccc(-c4c[nH]c(C5N(C(=O)C(=O)N6C(C)(C)CCCC6(C)C)CCC5(C)C)n4)cc3)cc2)c[nH]1.O=C(O)C(F)(F)F.O=C(O)C(F)(F)F` (stereo not drawn) [Compound W-246], the “Fold-Synergistic 1a (Q30E)” value under setting [1] is listed as over 100 fold.

Take `CC(C)[C@H](NC(=O)[C@@]1(C)CCC(F)(F)CO1)c1nc(-c2ccc(-c3ccc(-c4c[nH]c([C@@H](NC(=O)[C@@]5(C)CCC(F)(F)CO5)C(C)C)n4)cn3)cc2)c[nH]1` [Compound N-134]: the “Fold-Synergistic 1a (Q30E)” value under setting [1] is reported as over 100 fold.

For the compound `CC(C)[C@H](NC(=O)C(C)(C)C)c1nc2ccc(C#Cc3ccc4nc([C@@H](NC(=O)C(C)(C)C)C(C)C)[nH]c4c3)cc2[nH]1.O=C(O)C(F)(F)F` [Compound B43], under setting [1], the “Fold-Synergistic 1a (Q30E)” value is reported as over 100 fold.

As to `CC(=O)N[C@H](c1ncc(-c2ccc(-c3ccc(-c4cnc([C@@H](NC(C)=O)C(C)C)[nH]4)cc3)cc2)[nH]1)C(C)C` [Compound S-49], under setting [1], the “Fold-Synergistic 1a (Q30E)” value is given as over 10 fold.

As for `CC1(C)COC(C)(C(=O)N[C@H](c2nc(-c3ccc(-c4ccc(-c5c[nH]c([C@@H](NC(=O)C6(C)OCC(C)(C)CO6)C(C)(C)C)n5)cc4)cc3)c[nH]2)C(C)(C)C)OC1` [Compound P-154], under setting [1], the “Fold-Synergistic 1a (Q30E)” value was over 100 fold.

With `CC(C)C(c1ncc(-c2ccc(-c3ccc(-c4cnc(C(C(C)C)N5CCCCC5=O)[nH]4)cc3)cc2)[nH]1)N1CCCCC1=O` (stereo not drawn) [Compound P-52], the “Fold-Synergistic 1a (Q30E)” value under setting [1] is reported as over 10 fold.

For `CC(C)(C(=O)N[C@H](c1nc(-c2ccc(-c3ccc(-c4cnc([C@@H](NC(=O)C(C)(C)C5CCCO5)C(C)(C)C)[nH]4)cc3)cc2)c[nH]1)C(C)(C)C)C1CCCO1` (single isomer, unassigned) [Compound B-169], the “Fold-Synergistic 1a (Q30E)” value under setting [1] is recorded as over 100 fold.

As to `CC(C)(C)[C@H](NC(=O)C1CCC(F)(F)CC1)c1ncc(C#CC#Cc2cnc([C@@H](NC(=O)C3CCC(F)(F)CC3)C(C)(C)C)[nH]2)[nH]1` [Compound B66], the “Fold-Synergistic 1a (Q30E)” value under setting [1] is listed as over 10 fold.

As for `COC(=O)C1(C(=O)N[C@H](c2nc(-c3ccc(-c4ccc(-c5c[nH]c([C@@H](NC(=O)C6(C(=O)OC)CC6)C(C)(C)C)n5)cc4)cc3)c[nH]2)C(C)(C)C)CC1` [Compound W-124], under setting [1], the “Fold-Synergistic 1a (Q30E)” value is on record as over 100 fold.

Regarding `COc1ccc2c(C(=O)N3CCC[C@H]3c3ncc(-c4ccc(-c5ccc(-c6cnc([C@@H]7CCCN7C(=O)c7nc(Cl)cc8cc(OC)ccc78)[nH]6)cc5)cc4)[nH]3)nc(Cl)cc2c1` [Compound S-204], under setting [1], the “Fold-Synergistic 1a (Q30E)” value was over 100 fold.

As to `CC(C)[C@H](NC(=O)c1ccccc1)c1ncc(-c2ccc(-c3ccc(-c4cnc([C@@H](NC(=O)c5ccccc5)C(C)C)[nH]4)cc3)cc2)[nH]1` [Compound S-5], the “Fold-Synergistic 1a (Q30E)” value under setting [1] was over 100 fold.

Consider `CC(C)[C@H](NC(=O)C(C)(C)C(O)C1CC(F)(F)C1)c1nc(-c2ccc(-c3ccc(-c4c[nH]c([C@@H](NC(=O)C(C)(C)C(O)C5CC(F)(F)C5)C(C)C)n4)cc3)cc2)c[nH]1` (single isomer, unassigned) [Compound N-145B], for which the “Fold-Synergistic 1a (Q30E)” value under setting [1] is over 100 fold.

As for `COc1cc2ccccc2c(C(=O)N2CCC[C@H]2c2ncc(-c3ccc(-c4ccc(-c5cnc([C@@H](NC(=O)C(C)(C)C)C(C)C)[nH]5)cc4)cc3)[nH]2)n1` [Compound Y-13], the “Fold-Synergistic 1a (Q30E)” value was over 100 fold.

With `C=C1C[C@@H](C(=O)N[C@H](c2nc(-c3ccc(-c4ccc(-c5c[nH]c([C@@H](NC(=O)[C@@H]6CC(=C)CN6C(=O)OC(C)(C)C)C(C)(C)C)n5)cc4)cc3)c[nH]2)C(C)(C)C)N(C(=O)OC(C)(C)C)C1` [Compound W-91], the “Fold-Synergistic 1a (Q30E)” value under setting [1] was over 100 fold.

With `CC(C)[C@H](NC(=O)CC(F)(F)F)c1ncc(-c2ccc(-c3ccc(-c4cnc([C@@H](NC(=O)CC(F)(F)F)C(C)C)[nH]4)cc3)cc2)[nH]1` [Compound S-53], the “Fold-Synergistic 1a (Q30E)” value under setting [1] is on record as over 100 fold.

For the compound `COCC1(C(=O)N[C@H](c2nc(-c3ccc(-c4ccc(-c5c[nH]c([C@@H](NC(=O)C6(COC)CCC6)C(C)(C)C)n5)cc4)cc3)c[nH]2)C(C)(C)C)CCC1` [Compound N-59], the “Fold-Synergistic 1a (Q30E)” value under setting [1] is reported as over 100 fold.

Consider `CC1CCCCN1C(=O)C(=O)NC(c1nc(-c2ccc(-c3ccc(-c4c[nH]c(C(NC(=O)C(=O)N5CCCCC5C)C(C)(C)C)n4)cc3)cc2)c[nH]1)C(C)(C)C` (stereo not drawn) [Compound W-38], for which the “Fold-Synergistic 1a (Q30E)” value under setting [1] was over 100 fold.

On to `CC1(C)CCN(C(=O)C(=O)c2ccccc2)C1c1nc(-c2ccc(-c3ccc(-c4c[nH]c(C5N(C(=O)C(=O)c6ccccc6)CCC5(C)C)n4)cc3)cc2)c[nH]1` (stereo not drawn) [Compound W-224], for which the “Fold-Synergistic 1a (Q30E)” value under setting [1] is over 10 fold.

For `CC(C)(C)C(NC(=O)C(C)(O)C(F)(F)F)c1nc(-c2ccc(-c3ccc(-c4c[nH]c(C(NC(=O)C(C)(O)C(F)(F)F)C(C)(C)C)n4)cc3)cc2)c[nH]1.O=C(O)C(F)(F)F.O=C(O)C(F)(F)F` (single isomer, unassigned) [Compound L-66b], the “Fold-Synergistic 1a (Q30E)” value under setting [1] is over 100 fold.

As for `COC(=O)N(C)CC1(C(=O)N[C@H](c2nc(-c3ccc(-c4ccc(-c5c[nH]c([C@@H](NC(=O)C6(CN(C)C(=O)OC)CC6)C(C)(C)C)n5)cc4)cc3)c[nH]2)C(C)(C)C)CC1` [Compound L-41], the “Fold-Synergistic 1a (Q30E)” value under setting [1] is over 100 fold.

`CC(C)(C)C(=O)N[C@H](c1ncc(C#Cc2ccc3cc(-c4cnc([C@@H](NC(=O)C(C)(C)C)C(C)(C)C)[nH]4)ccc3c2)[nH]1)C(C)(C)C` [Compound B2]: under setting [1], the “Fold-Synergistic 1a (Q30E)” value was over 100 fold.

With `CCOC(=O)N[C@H](c1ncc(-c2ccc(-c3ccc(-c4cnc([C@@H](NC(=O)OCC)C(C)C)[nH]4)cc3)cc2)[nH]1)C(C)C` [Compound S-207], the “Fold-Synergistic 1a (Q30E)” value under setting [1] was over 10 fold.

On to `CC(C)[C@H](NC(=O)[C@@]1(C)CCC(F)(F)CO1)c1nc(-c2ccc3c(c2)CCc2cc(-c4c[nH]c([C@@H](NC(=O)[C@@]5(C)CCC(F)(F)CO5)C(C)C)n4)ccc2-3)c[nH]1` [Compound N-131], for which the “Fold-Synergistic 1a (Q30E)” value under setting [1] was over 100 fold.

In the case of `O=C(c1cc2ccccc2[nH]1)N1CCC[C@H]1c1ncc(-c2ccc(-c3ccc(-c4cnc([C@@H]5CCCN5C(=O)c5cc6ccccc6[nH]5)[nH]4)cc3)cc2)[nH]1` [Compound S-120], the “Fold-Synergistic 1a (Q30E)” value under setting [1] was under 10 fold.

`CC(C)(C)[C@H](NC(=O)C1(C2(O)CCC(F)(F)CC2)CC1)c1nc(-c2ccc(-c3ccc4c(c3)CCc3nc([C@@H](NC(=O)C5(C6(O)CCC(F)(F)CC6)CC5)C(C)(C)C)[nH]c3-4)cc2)c[nH]1` [Compound B13B]: the “Fold-Synergistic 1a (Q30E)” value under setting [1] is over 100 fold.

Take `CC(C)[C@H](NC(=O)C(C)(C)C)c1ncc(-c2ccc(-c3ccc(-c4cnc([C@@H](NC(=O)C(C)(C)C)C(C)C)[nH]4)cc3)cc2)[nH]1` [Compound S-34]: under setting [1], the “Fold-Synergistic 1a (Q30E)” value is on record as over 100 fold.

In the case of `CC(C)CC(=O)NC1(c2ncc(-c3ccc(-c4ccc(-c5cnc(C6(NC(=O)CC(C)C)Cc7ccccc7C6)[nH]5)cc4)cc3)[nH]2)Cc2ccccc2C1.O=C(O)C(F)(F)F.O=C(O)C(F)(F)F` [Compound N-19], under setting [1], the “Fold-Synergistic 1a (Q30E)” value is under 10 fold.

Take `CC(C)(C(=O)N[C@H](c1nc(-c2ccc(-c3ccc(-c4c[nH]c([C@@H](NC(=O)C(C)(C)C5CCC(F)(F)CC5)C(C)(C)C)n4)cc3)cc2)c[nH]1)C(C)(C)C)C1CCC(F)(F)CC1` [Compound P-150]: the “Fold-Synergistic 1a (Q30E)” value under setting [1] was over 100 fold.

With `CC(C)[C@H](NC(=O)C12CC3CC(CC(C3)C1)C2)c1ncc(-c2ccc(-c3ccc(-c4cnc([C@@H](NC(=O)C56CC7CC(CC(C7)C5)C6)C(C)C)[nH]4)cc3)cc2)[nH]1` [Compound P-60], under setting [1], the “Fold-Synergistic 1a (Q30E)” value is on record as over 100 fold.

Take `CC(=O)N(C)C1(C(=O)N[C@H](c2nc(-c3ccc(-c4ccc(-c5c[nH]c([C@@H](NC(=O)C6(N(C)C(C)=O)CC6)C(C)(C)C)n5)cc4)cc3)c[nH]2)C(C)(C)C)CC1.O=C(O)C(F)(F)F.O=C(O)C(F)(F)F` [Compound L-11]: under setting [1], the “Fold-Synergistic 1a (Q30E)” value is over 100 fold.

On to `CC(C)[C@H](NC(=O)c1ccccc1)c1ncc(-c2ccc(-c3ccc(-c4cnc([C@@H]5CCCN5C(=O)c5ccccc5)[nH]4)cc3)cc2)[nH]1` [Compound Y-15], for which, under setting [1], the “Fold-Synergistic 1a (Q30E)” value is listed as over 10 fold.

As for `CCN(CC(F)(F)F)C(=O)C(=O)NC(c1nc(-c2ccc(-c3ccc(-c4c[nH]c(C(NC(=O)C(=O)N(CC)CC(F)(F)F)C(C)C)n4)cc3)cc2)c[nH]1)C(C)C` (stereo not drawn) [Compound W-56], under setting [1], the “Fold-Synergistic 1a (Q30E)” value is on record as over 100 fold.

In the case of `CC(C)[C@H](NC(=O)C12CCC(C1)C(C)(C)C2O)c1nc(-c2ccc(-c3ccc(-c4c[nH]c([C@@H](NC(=O)C56CCC(C5)C(C)(C)C6O)C(C)C)n4)cc3)cc2)c[nH]1` (single isomer, unassigned) [Compound Y-115], under setting [1], the “Fold-Synergistic 1a (Q30E)” value is given as over 100 fold.
